The values that follow are results of earlier work, collected in patent US11759428B2, “Pharmaceutical formulation comprising esomeprazole and sodium bicarbonate” (CHONG KUN DANG PHARMACEUTICAL CORP., priority 2018, dated 2023).

For the data set the following is noted: aqueous solution having 3 or lower of pH.

Take `COc1ccc2nc([S@@+]([O-])Cc3ncc(C)c(OC)c3C)[nH]c2c1` [esomeprazole, (S)-5-methoxy-2-[(4-methoxy-3,5-dimethyl-2-pyridinyl)-methyl]sulfinyl-1H-benzimid azol]: the degradation half-life result is recorded as “less than 10 minutes”.
